The source of these data is the Deep4Chem optical property database.

Molecules are shown by their SMILES.

The series is described as follows: solvent given as SMILES.

Compound `C(=C\c1ccc(-n2c3ccccc3c3ccccc32)cc1)/c1ccc(-c2ccc(/C=C/c3ccc(-n4c5ccccc5c5ccccc54)cc3)cc2)cc1` showed an emission maximum (in Cc1ccccc1) of 420 nm and an emission maximum (in c1ccc2c(c1)c1ccccc1n2-c1ccc(-c2ccc(-n3c4ccccc4c4ccccc43)cc2)cc1) of 438 nm.

`N#CC(C#N)=Cc1ccc(-c2ccc(N(c3ccccc3)c3ccccc3)cc2)s1`: the emission maximum (in ClC(Cl)Cl) is reported as 634 nm.

Turning to `CC(C)(C)c1ccc(C2=c3sc4ccccc4c3=[N+]3C2=Nc2c(-c4ccc(C(C)(C)C)cc4)c4sc5ccccc5c4n2[B-]3(F)F)cc1`, the emission maximum is recorded as 800 nm (in C1CCOC1), 796 nm (in Cc1ccccc1) and 794 nm (in ClC(Cl)Cl).

Turning to `CCN(CC)c1ccc2cc(/C=C/c3ccccc3)c(=O)oc2c1`, the emission maximum (in CC#N) was 477 nm.

Under “in CC#N”, `CN(C)c1ccc(-c2nc3cc(C(F)(F)F)ccc3n2-c2ccccc2)cc1` had an emission maximum of 406 nm.

The compound `Cn1cc(-c2nc3ccccc3nc2C#Cc2ccc(C#N)cc2)c2ccccc21` had an emission maximum (in ClCCl) of 520 nm.

Turning to `CC1(C)CCc2c(c3ccccc3c3nc4c(nc23)c2c(c3ccccc34)OC(C)(C)CC2)O1`, the emission maximum by setting is: (in C1CCCCC1) 434.97 nm; (in C1COCCO1) 443.26 nm; (in CC#N) 449.03 nm; (in CC(C)O) 448.03 nm; (in CCCCCC) 434.22 nm; (in ClC(Cl)Cl) 446.43 nm. For the setting “in c1ccccc1”, this compound returned an emission maximum of 441.7 nm.

`Cc1cc2c3ccccc3sc2c2[nH]c3ccccc3c12`: the emission maximum (in ClCCl) is given as 365 nm.

For the compound `COc1ccc(C#Cc2ccc(C#N)cc2)cc1OC`, the emission maximum was determined as 400 nm (in C1COCCO1); 451 nm (in CC#N); 346 nm (in CCCCCC); 347 nm (in CCCCCCC); 425 nm (in CCCO); 408 nm (in CCOC(C)=O). The emission maximum by setting is: (in CS(C)=O) 462 nm; (in ClC(Cl)Cl) 404 nm; (in ClCCl) 417 nm.

`c1ccc(-c2nc(-c3ccccc3)nc(-c3ccc(-n4c5ccc(-c6ccc7sc8ccccc8c7c6)cc5c5cc(-c6ccc7sc8ccccc8c7c6)ccc54)cc3)n2)cc1` gave an emission maximum (in CCOC(C)=O) of 473 nm, an emission maximum (in CN(C)C=O) of 531 nm and an emission maximum (in Cc1ccccc1) of 437 nm.

Take `N#Cc1c(N2CCCCC2)cc(-c2ccc(-c3ccccc3)s2)c2c1CCc1ccccc1-2`: the emission maximum (in C1CCOC1) was 515 nm.

In turn, `Cc1ccc(-c2ccc(/C=C/c3cccn3C)cn2)nc1` had an emission maximum (in C1COCCO1) of 464 nm; an emission maximum (in CC#N) of 488 nm; an emission maximum (in CCCCCC) of 436 nm; an emission maximum (in CCO) of 501 nm; an emission maximum (in CN(C)C=O) of 493 nm; an emission maximum (in CO) of 507 nm. In addition, the emission maximum runs as follows: (in CS(C)=O) 500 nm; (in Cc1ccccc1) 459 nm; (in ClC(Cl)Cl) 476 nm; (in c1ccccc1) 464 nm.

Under “in C1CCOC1”, `CC1=[N+]2C(=C(c3ccc(C(=C(c4ccccc4)c4ccccc4)c4ccccc4)cc3)c3ccc(C)n3[B-]2(F)F)C=C1` yielded an emission maximum of 530 nm.

`Cc1ccsc1-c1ccc(-c2ccc(-c3sccc3C)s2)s1`: the emission maximum (in CCCCCCCCCCCCCC) came out at 473 nm.

As for `CC1CCC(=CS/C=C/c2ccc(/C=C/SC=C3CCC(C)CC3)cc2)CC1` (configuration not stated), the emission maximum (in ClCCl) is reported as 427 nm.

As to `CCCCC1=Cc2c3ccc4cccc5ccc(c6cc(-c7ccc(N(c8ccccc8)c8ccccc8)cc7)n(c26)P1(=O)c1ccccc1)c3c45` (configuration not stated), the emission maximum runs as follows: (in C1CCCCC1) 502 nm; (in C1CCOC1) 541 nm; (in C1COCCO1) 526 nm; (in CC#N) 572 nm; (in CC(C)=O) 560 nm; (in CO) 563 nm. Moreover, the emission maximum is, setting by setting: (in Cc1ccccc1) 518 nm; (in ClC(Cl)Cl) 537 nm; (in ClCCl) 551 nm.

With `C[Si]1(C)O[Si](C)(C)c2cc3cc4cc5c(cc4cc3cc21)C(=O)c1cc2cc3cc4c(cc3cc2cc1C5=O)[Si](C)(C)O[Si]4(C)C`, the emission maximum (in ClC(Cl)Cl) is 518 nm.

For `NS(=O)(=O)c1ccc(N2N=C(c3ccc(O)cc3)CC2c2ccc(Cl)cc2)cc1` (configuration not stated), the emission maximum reads like this: (in C1CCOC1) 418 nm; (in C1COCCO1) 417 nm; (in CC#N) 417 nm; (in CC(C)O) 423 nm; (in CCO) 427 nm; (in CCOC(C)=O) 416 nm. Moreover, the emission maximum is, setting by setting: (in CN(C)C=O) 422 nm; (in CO) 431 nm; (in CS(C)=O) 424 nm; (in O) 448 nm.

Regarding `O=[N+]([O-])c1ccc(/C=C/c2cn(S(=O)(=O)c3ccccc3)c3ccccc23)cc1`, the emission maximum worked out at 593 nm (in CC#N), 403 nm (in CCCCCCC), 417 nm (in CO) and 540 nm (in O).

`CCn1c(-c2ccc(-c3ccc(-c4ccc(-c5n(CC)c6ccccc6[n+]5CC)cc4)c(C)c3)cc2)[n+](CC)c2ccccc21`: the emission maximum (in O) amounted to 400 nm.

Turning to `C(=C\c1c[nH]cn1)/c1cc[n+]2ccc(/C=C/c3c[nH]cn3)cc2c1`, the emission maximum (in CO) is reported as 527 nm.

With `CC(C)(C)c1ccc2c(c1)c1cc(C(C)(C)C)ccc1n2-c1cccc(C(=O)c2cccc(-n3c4ccc(C(C)(C)C)cc4c4cc(C(C)(C)C)ccc43)n2)n1`, the emission maximum runs as follows: (in C1CCOC1) 378.66 nm; (in Cc1ccccc1) 381.64 nm; (in ClCCl) 383.6 nm.

The compound `Cc1c2ccc(=[N+]3CCCCC3)cc-2oc2cc(N3CCCCC3)ccc12` came in with an emission maximum (in ClCCl) of 570 nm.

Where the note is “in ClCCl”, `COc1ccc2cc(/C=C/C3=[O+][B-](F)(F)OC(/C=C/c4ccc5cc(OC)ccc5c4)=C3c3ccccc3)ccc2c1` returned an emission maximum of 600 nm.

In the case of `CC1(C)C(/C=C/C2=C(Cl)C(=C/C=C3/N(CCCCCC(=O)O)c4ccccc4C3(C)C)/CCC2)=[N+](CCCCCC(=O)O)c2ccccc21`, the emission maximum (in CO) turned out to be 808 nm.

Regarding `CCCCCCOc1cc(N(CC)CC)ccc1/C=C(\C#N)c1ccc(/C=C/C(=C(C#N)C#N)c2ccc3c(c2)c2ccccc2n3CC)s1`, the emission maximum (in ClCCl) amounted to 742 nm.

As for `O=Cc1nc2ccc(C#Cc3ccc(N(c4ccccc4)c4ccccc4)cc3)cc2s1`, under “in Cc1ccccc1”, the emission maximum was 519 nm.

As to `NS(=O)(=O)c1ccc(N2N=C(c3ccc(O)cc3)CC2c2ccccc2)cc1` (configuration not stated), the emission maximum is, setting by setting: (in C1CCOC1) 418 nm; (in C1COCCO1) 417 nm; (in CC#N) 417 nm; (in CC(C)O) 423 nm; (in CCO) 428 nm; (in CCOC(C)=O) 416 nm. Besides, the emission maximum reads like this: (in CN(C)C=O) 422 nm; (in CO) 432 nm; (in CS(C)=O) 424 nm; (in O) 448 nm.

Consider `Cc1cc(C)c(B(c2c(C)cc(C)cc2C)c2cc3ccc4ccccc4c3c3c2ccc2ccccc23)c(C)c1`, for which the emission maximum came out at 436 nm (in C1CCCCC1); 446 nm (in C1CCOC1); 449 nm (in CC#N); 443 nm (in ClC(Cl)Cl); 444 nm (in c1ccccc1).

For the setting “in Cc1ccccc1”, `CC(C)(C)c1ccc(N2c3ccc(C(C)(C)C)cc3B3c4cc(C(C)(C)C)ccc4N(c4ccc(C(C)(C)C)cc4)c4cc(-n5c6ccc(C(C)(C)C)cc6c6cc(C(C)(C)C)ccc65)cc2c43)cc1` displayed an emission maximum of 470 nm.

`C[SiH](C)c1cccc2ccccc12` showed an emission maximum (in C1CCCCC1) of 328 nm.

For the compound `CC(C)c1cccc(C(C)C)c1N1C(=O)c2cccc3c(Oc4ccc(C(C)(C)c5ccccc5)cc4)ccc(c23)C1=O`, the emission maximum (in ClCCl) was found to be 435 nm.

Compound `c1cncc(-c2ccc(-c3c4ccccc4c(-c4ccc(-c5cccnc5)cc4)c4ccccc34)cc2)c1` registered an emission maximum (in ClCCl) of 426 nm.

`CCN(CC)c1ccc2c(c1)oc(=O)c1c(-c3ccccc3C(=O)O)c3ccc(=[N+](CC)CC)cc-3oc12`: the emission maximum (in CCO) is 637 nm, the emission maximum (in ClC(Cl)Cl) is on record as 636 nm and the emission maximum (in O) is reported as 646 nm.

`CCn1c2c(-c3ccc(-c4cccs4)s3)cc(C(C)(C)C)cc2c2cc(C(C)(C)C)cc(-c3ccc(-c4cccs4)s3)c21` returned an emission maximum (in ClCCl) of 440 nm.

For the compound `CN(C)c1ccc(C2=[N+]3C(=Nc4c(-c5ccc(OCCCCS(=O)(=O)[O-])cc5)cc(-c5ccc(N(C)C)cc5)n4[B-]3(F)F)C(c3ccc(OCCCCS(=O)(=O)[O-])cc3)=C2)cc1`, the emission maximum (in CS(C)=O) was 826 nm.

With `c1ccc(C2(c3ccccc3)c3ccccc3N(c3ccc(-c4nc([C@]56CC7CC(C[C@@H](C7)C5)C6)nc([C@]56C[C@H]7C[C@@H](C[C@H](C7)C5)C6)n4)cc3)c3ccccc32)cc1`, the emission maximum came to 445.29 nm (in CC(C)(C)c1ccc(-n2c3ccc([Si](c4ccccc4)(c4ccccc4)c4ccccc4)cc3c3cc([Si](c4ccccc4)(c4ccccc4)c4ccccc4)ccc32)cc1) and 451.05 nm (in Cc1ccccc1).

Consider `C1=C(c2ccccc2)C=C(c2ccccc2)/C1=C/c1ccc(-c2cccs2)s1`, for which the emission maximum (in C1CCOC1) amounted to 503 nm.

In the case of `CC(=O)Nc1ccc(C2=C/C(=C\c3ccc([N+](=O)[O-])cc3)C(=O)O2)cc1`, the emission maximum (in C1COCCO1) worked out at 550 nm.

For the setting “in ClC(Cl)Cl”, `CCCCN1C(=O)c2ccc3c4ccc5c6c(ccc(c7ccc(c2c37)C1=O)c64)C(=O)N(CCCC)C5=O` returned an emission maximum of 533 nm.

In turn, `CCn1c(-c2ccc(-c3ccc4c(c3)C(c3ccccc3)(c3ccccc3)c3ccccc3-4)cc2)c(-c2ccc3ccccc3c2)c(-c2ccc3ccccc3c2)c1-c1ccc(-c2ccc3c(c2)C(c2ccccc2)(c2ccccc2)c2ccccc2-3)cc1` yielded an emission maximum (in CCOC(C)=O) of 441 nm.

`CN(C)c1cc2c(cc1F)c(=O)c1cc(F)c(N(C)C)cc1n2C`: where the note is “in CCO”, the emission maximum turned out to be 441 nm.

As for `O=c1oc2ccccc2cc1-c1ccc([N+](=O)[O-])cc1`, the emission maximum was found to be 421 nm (in C1CCOC1), 409 nm (in CC#N), 425 nm (in CS(C)=O) and 400 nm (in ClC(Cl)Cl).
